Converted amounts (≈) assume the structure as drawn. Like-named read-outs stand apart in the source and are kept apart here.
How the values were obtained:
[1] = system: Clostridium perfringens; test: microbe, parasite or virus in culture; format: cell-based; details: read-out: IC50 Clostridium perfringens
[2] = system: Bacteroides levii; test: anaerobic liquid culture growth inhibition, OD 650 nm; format: cell-based; details: Porphyromonas levii; anaerobic overnight, OD 650 nm; read-out: IC50 Bacteroides levii
[3] = system: P. gingivalis strain 2561; test: minimum inhibitory concentration by addition to plating medium; format: cell-based; details: for MIC: Porphyromonas gingivalis, 2561, 168 h, read-out: P. gingivalis MIC; for concentration range of activity against P. gingivalis: molar basis; for activity greater than Tetracycline against P. gingivalis: weight-concentration basis
Protocol: (§1) Solutions of the agents were tested for activity against Escherichia coli strain DH5α by a zone inhibition method, and against P. gingivalis strain 2561 by addition to plating medium to determine minimum inhibitory concentrations (M/C). For the zone inhibition study, a suspension of E. coli was spread on the surface of an agar plate. A 3 mm diameter paper disk was placed on the seeded agar surface, and 10 μl of solution of each compound formulated at 1 mg/ml was added to the disk. Plates were incubated overnight at 37° C. The radius of the zone of inhibition was measured from the center of the disk to the edge of the E. coli bacterial lawn. For determination of MIC, drug solutions were mixed with plating medium to produce a range of final drug concentrations. Media with drug were plated in the wells of 24-well plates. A drop of bacterial suspension containing 2-5×10^2 CFU P. gingivalis was placed on each well. Plates were incubated 1 week in an anaerobic chamber at 37° C.

[4] = system: purified collagenase from P. gingivalis; test: anti-collagenase activity, 3H-collagen hydrolysis; format: biochemical; details: for % Inhibition of collagenase: 24 h at 25° C.
Protocol: Collagenase activity in the presence of the preferred compound 2-aminophenazine-5,10-dioxide and in the presence of Tetracycline were measured by incubating ^3 H-collagen with purified collagenase from P. gingivalis using increasing drag concentrations. After 24 h at 25° C., unhydrolyzed collagen fibers were removed from the mixture by centrifugation, and the specific activity of ^3 H in the supernatant quantified as a measure of hydrolyzed collagen. Percent inhibition was determined by subtracting the value in the presence of test compound from the control value, then dividing this quantity by the control value [(control-compound)/control×100].

[5] = system: Escherichia coli strain DH5α; test: zone inhibition method on agar plate; format: cell-based; details: Escherichia coli; 10 μl of 1 mg/ml on 3 mm paper disk, overnight 37° C.; radius from center of disk; read-out: E. coli Clear Zone
Protocol: as §1

[6] = system: Bacteroides fragilis; test: anaerobic liquid culture growth inhibition, OD 650 nm; format: cell-based; details: anaerobic overnight, OD 650 nm, read-out: IC50 Bacteroides fragilis
[7] = system: Fusobacterium necrophorum; test: as above; format: cell-based; details: anaerobic overnight, OD 650 nm, read-out: IC50 Fusobacterium necrophorum
[8] = oral bioavailability in rats (AUC versus intravenous); details: rat, in vivo
Protocol: The bioavailibility of orally delivered substituted phenazine-5,10-dioxideswas measured because oral delivery also can comprise systemic administration. The bioavailibility was assessed for the phenazine-5,10-dioxide derivative, 2-aminophenazine-5,10-dioxide administered by oral gavage to rats. Vehicles and dose levels are detailed in Table 9. Calculations of bioavailability (F) following oral administration were made based on area under the curve (AUC) calculations and comparsion with intravenous administration.

[9] = system: Peptostreptococcus anaerobius; test: anaerobic liquid culture growth inhibition, OD 650 nm; format: cell-based; details: anaerobic overnight, OD 650 nm, read-out: IC50 Peptostreptococcus anaerobius
[10] = system: Enterobacter cloacae; test: IC90 in plating medium, 24-well plates; format: cell-based
Protocol: (§2) Drug solutions were mixed with plating medium to produce a range of final drug concentrations. Media with drug were plated in the wells of 24-well plates. A drop of bacterial suspension containing 2-5×10^2 CFU was placed on each well. Plates were incubated overnight at 37° C.
(§3) The concentration of the compound necessary to reduce viability of each micro-organism by 90% (inhibitory concentration 90%=IC90) is reported in Table 3 as μg/ml. Bacterial strains are listed in order of decreasing susceptibility to 2-aminophenazine-5,10-dioxide.

[11] = system: Corynebacterium xerosis; test: IC90 in plating medium, 24-well plates; format: cell-based
Protocol: as §2, §3

[12] = system: Serratia marsescens; test: IC90 in plating medium, 24-well plates; format: cell-based
Protocol: as §2, §3

[13] = system: Proteus mirabilis; test: IC90 in plating medium, 24-well plates; format: cell-based
Protocol: as §2, §3

[14] = system: Klebsiella pneumoniae; test: IC90 in plating medium, 24-well plates; format: cell-based
Protocol: as §2, §3

[15] = system: Streptococcus faecalis; test: IC90 in plating medium, 24-well plates; format: cell-based; details: Enterococcus faecalis
Protocol: as §2, §3

[16] = system: E. coli (strain B); test: IC90 in plating medium, 24-well plates; format: cell-based; details: Escherichia coli, rfa
Protocol: as §2, §3

[17] = system: Bacillus cereus; test: IC90 in plating medium, 24-well plates; format: cell-based; details: 90% inhibition of growth, overnight 37° C.
Protocol: as §2, §3

[18] = system: Micrococcus luteus; test: IC90 in plating medium, 24-well plates; format: cell-based
Protocol: as §2, §3

[19] = system: Staphylococcus aureus; test: IC90 in plating medium, 24-well plates; format: cell-based
Protocol: as §2, §3

[20] = system: Pseudomonas aeruginosa; test: IC90 in plating medium, 24-well plates; format: cell-based
Protocol: as §2, §3

[21] = system: Fusobacterium nucleatum; test: anaerobic liquid culture growth inhibition, OD 650 nm; format: cell-based; details: anaerobic overnight, OD 650 nm, read-out: IC50 Fusobacterium nucleatum
[22] = system: Porphyromonas gingivalis RB-22D-1; test: as above; format: cell-based; details: RB22D1, anaerobic overnight, OD 650 nm, read-out: IC50 Porphyromonas gingivalis RB-22D-1
[23] = system: Porphyromonas gingivalis 2561; test: as above; format: cell-based; details: Porphyromonas gingivalis, 2561; anaerobic overnight, OD 650 nm; read-out: IC50 Porphyromonas gingivalis 2561
[24] = complete inhibition of growth, 1 week anaerobic, 37° C.

Nc1ccc2c(c1)[n+]([O-])c1ccccc1[n+]2[O-] [2-aminophenazine-5,10-dioxide]
IC50 [1]: 1 mg/L (≈ 4.4 µM)
IC50 [2]: 0.03 mg/L (≈ 0.132 µM)
MIC ([3]; MIC on a molar basis): 0.009 µM
MIC [3, 24]: 0.002 mg/L
concentration range of activity against P. gingivalis [3]: nanomolar concentration range
activity greater than Tetracycline against P. gingivalis [3]: more than 100 fold
% Inhibition of collagenase ([4]; 1 μg/ml): 11.6%
% Inhibition of collagenase ([4]; 10 μg/ml): 47.3%
% Inhibition of collagenase ([4]; 50 μg/ml): 57.3%
% Inhibition of collagenase ([4]; 100 μg/ml): 81.7%
anti-collagenase IC50 ([4]; estimated from Table 5): more than 10 μg/ml
zone of inhibition at 1000 µg/mL [5]: 32 mm
IC50 [6]: 1 mg/L (≈ 4.4 µM)
IC50 [7]: 0.03 mg/L (≈ 0.132 µM)
AUC ([8]; iv, 10 mg/kg, rats, 10 mg/kg IV administration): 0.39 µg·h/mL
AUC ([8]; po, 50 mg/kg, rats, 50 mg/kg oral, 2% Brij35/water): 1.48 µg·h/mL
bioavailability ([8]; po, 50 mg/kg, rats, 50 mg/kg oral, 2% Brij35/water, compared to 10 mg/kg IV, read-out: F (Bioavailability)): 76%
AUC ([8]; po, 50 mg/kg, rats, 50 mg/kg oral, 10% Brij35/Mineral oil): 2.39 µg·h/mL
bioavailability ([8]; po, 50 mg/kg, rats, 50 mg/kg oral, 10% Brij35/Mineral oil, compared to 10 mg/kg IV, read-out: F (Bioavailability)): 120%
AUC ([8]; po, 50 mg/kg, rats, 50 mg/kg oral, 10% Brij35/water): 1.25 µg·h/mL
bioavailability ([8]; po, 50 mg/kg, rats, 50 mg/kg oral, 10% Brij35/water, compared to 10 mg/kg IV, read-out: F (Bioavailability)): 64%
AUC ([8]; po, 50 mg/kg, rats, 50 mg/kg oral, water): 1.74 µg·h/mL
bioavailability ([8]; po, 50 mg/kg, rats, 50 mg/kg oral, water, compared to 10 mg/kg IV, read-out: F (Bioavailability)): 89%
AUC ([8]; po, 60 mg/kg, rats, 60 mg/kg oral, Cremaphor): 0.103 µg·h/mL
bioavailability ([8]; po, 60 mg/kg, rats, 60 mg/kg oral, Cremaphor, compared to 10 mg/kg IV, read-out: F (Bioavailability)): 4%
AUC ([8]; po, 100 mg/kg, rats, 100 mg/kg oral, Arlacel 83): 2.63 µg·h/mL
bioavailability ([8]; po, 100 mg/kg, rats, 100 mg/kg oral, Arlacel 83, compared to 10 mg/kg IV, read-out: F (Bioavailability)): 67%
AUC ([8]; po, 100 mg/kg, rats, 100 mg/kg oral, Encapsin CD): 3.52 µg·h/mL
bioavailability ([8]; po, 100 mg/kg, rats, 100 mg/kg oral, Encapsin CD, compared to 10 mg/kg IV, read-out: F (Bioavailability)): 90%
AUC ([8]; po, 100 mg/kg, rats, 100 mg/kg oral, PEG (Polyethyleneglycol)): 3.94 µg·h/mL
bioavailability ([8]; po, 100 mg/kg, rats, 100 mg/kg oral, PEG (Polyethyleneglycol), compared to 10 mg/kg IV, read-out: F (Bioavailability)): 100%
IC50 [9]: 0.06 mg/L (≈ 0.264 µM)
IC90 [10]: > 10 mg/L
IC90 [11]: 1.25 mg/L (≈ 5.5 µM)
IC90 [12]: 10 mg/L (≈ 44 µM)
IC90 [13]: 5 mg/L (≈ 22 µM)
IC90 [14]: 10 mg/L (≈ 44 µM)
IC90 [15]: 5 mg/L (≈ 22 µM)
IC90 [16]: 0.31 mg/L (≈ 1.36 µM)
IC90 [17]: 0.31 mg/L (≈ 1.36 µM)
activity against M. luteus [18]: lack of activity
IC90 ([18]; Micrococcus luteus): 10 mg/L (≈ 44 µM)
IC90 [19]: 0.62 mg/L (≈ 2.73 µM)
IC90 [20]: > 10 mg/L
IC50 [21]: 10 mg/L (≈ 44 µM)
IC50 [22]: 0.12 mg/L (≈ 0.528 µM)
IC50 [23]: 0.04 mg/L (≈ 0.176 µM)

Cc1ccc2c(c1)[n+]([O-])c1ccccc1[n+]2[O-] [2-methylphenazine-5,10-dioxide]
IC50 [1]: 1 mg/L (≈ 4.42 µM)
IC50 [2]: 1 mg/L (≈ 4.42 µM)
MIC ([3]; MIC on a molar basis): 0.018 µM
MIC [3, 24]: 0.004 mg/L
concentration range of activity against P. gingivalis [3]: nanomolar concentration range
activity greater than Tetracycline against P. gingivalis [3]: more than 100 fold
zone of inhibition at 1000 µg/mL [5]: 19 mm
IC50 [6]: 7 mg/L (≈ 30.9 µM)
IC50 [7]: 1.5 mg/L (≈ 6.63 µM)
bioavailability ([8]; po, 80 mg/kg, Rats, 80 mg/kg PO, 10% Cremaphor (Table 8 footnote 1), read-out: F): ~2%
bioavailability ([8]; po, 100 mg/kg, Rats, 100 mg/kg PO, 2% Brij 35 (Table 8 footnote 4), read-out: F): ~100%
bioavailability ([8]; po, 100 mg/kg, Rats, 100 mg/kg PO, 10% Arlacel 83/Corn Oil (Table 8 footnote 3), read-out: F): ~37%
bioavailability ([8]; po, 100 mg/kg, Rats, 100 mg/kg PO, 100% PEG400 (Table 8 footnote 2), read-out: F): ~50%
bioavailability ([8]; po, 100 mg/kg, Rats, 100 mg/kg PO, Encapsin CD (Table 8 footnote 2), read-out: F): ~50%
IC50 [9]: 0.2 mg/L (≈ 0.884 µM)
IC50 [21]: > 10 mg/L
IC50 [22]: 0.35 mg/L (≈ 1.55 µM)
IC50 [23]: 0.16 mg/L (≈ 0.707 µM)

Source: patent US5637591A, “Antimicrobial and anticollagenase activity of phenazine-5, 10-dioxide and derivatives” (Fuji ImmunoPharmaceuticals Corp., priority 1995, dated 1997)
